Measurements from patent US5688807A, “Method for treating 5HT2B receptor related conditions” (Eli Lilly and Company, priority 1995, dated 1997).
Where a name gives a salt, the structure may show the parent alone. Read-outs that look alike come from different tables or passages of the source.

Experiments:
Rat 5-HT2A = Rat 5-HT2A (Rattus norvegicus, UniProt P14842); assay: [125I]DOI radioligand binding, rat 5-HT2A; settings: AVG
rat 5-HT2B receptor = rat 5-HT2B receptor (Rattus norvegicus, UniProt P30994); assay: biochemical; assay type: binding
rat 5-HT2B receptor, sequence (P30994 whole entry): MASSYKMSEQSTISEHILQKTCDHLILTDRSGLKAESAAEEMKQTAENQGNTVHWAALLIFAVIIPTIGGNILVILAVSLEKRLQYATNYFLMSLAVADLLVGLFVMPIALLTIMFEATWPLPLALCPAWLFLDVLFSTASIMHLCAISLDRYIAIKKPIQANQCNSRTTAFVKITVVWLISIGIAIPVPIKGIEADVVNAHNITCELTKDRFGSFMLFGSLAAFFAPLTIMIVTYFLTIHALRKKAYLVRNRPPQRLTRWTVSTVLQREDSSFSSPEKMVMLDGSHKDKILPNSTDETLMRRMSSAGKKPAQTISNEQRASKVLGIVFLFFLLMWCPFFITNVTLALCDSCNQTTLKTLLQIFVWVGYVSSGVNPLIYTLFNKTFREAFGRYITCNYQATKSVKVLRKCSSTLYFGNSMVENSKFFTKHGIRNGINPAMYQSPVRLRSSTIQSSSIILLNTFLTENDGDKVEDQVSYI

Human 5-HT2A = Human 5-HT2A (Homo sapiens, UniProt P28223); assay: [125I]DOI radioligand binding, human 5-HT2A
Human 5-HT2A, sequence (P28223 whole entry): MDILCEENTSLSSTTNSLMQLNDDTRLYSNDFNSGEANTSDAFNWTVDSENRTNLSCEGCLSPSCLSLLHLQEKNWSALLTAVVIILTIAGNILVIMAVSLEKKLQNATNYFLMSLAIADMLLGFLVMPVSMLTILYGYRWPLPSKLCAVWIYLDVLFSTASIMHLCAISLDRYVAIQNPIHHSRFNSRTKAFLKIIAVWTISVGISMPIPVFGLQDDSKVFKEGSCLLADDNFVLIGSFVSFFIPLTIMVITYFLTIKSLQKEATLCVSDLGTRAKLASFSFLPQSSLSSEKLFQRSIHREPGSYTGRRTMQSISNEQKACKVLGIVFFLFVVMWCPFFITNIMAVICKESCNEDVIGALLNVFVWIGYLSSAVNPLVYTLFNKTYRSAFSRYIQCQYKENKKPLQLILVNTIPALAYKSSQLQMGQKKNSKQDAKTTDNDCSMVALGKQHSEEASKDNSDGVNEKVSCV

Human 5-HT2B = target: T1, Human 5-HT2B (Homo sapiens, UniProt P41595); assay: [3H]Serotonin radioligand binding, human 5-HT2B
T1 construct: expressed in transfected cells
T1 sequence (P41595 whole entry): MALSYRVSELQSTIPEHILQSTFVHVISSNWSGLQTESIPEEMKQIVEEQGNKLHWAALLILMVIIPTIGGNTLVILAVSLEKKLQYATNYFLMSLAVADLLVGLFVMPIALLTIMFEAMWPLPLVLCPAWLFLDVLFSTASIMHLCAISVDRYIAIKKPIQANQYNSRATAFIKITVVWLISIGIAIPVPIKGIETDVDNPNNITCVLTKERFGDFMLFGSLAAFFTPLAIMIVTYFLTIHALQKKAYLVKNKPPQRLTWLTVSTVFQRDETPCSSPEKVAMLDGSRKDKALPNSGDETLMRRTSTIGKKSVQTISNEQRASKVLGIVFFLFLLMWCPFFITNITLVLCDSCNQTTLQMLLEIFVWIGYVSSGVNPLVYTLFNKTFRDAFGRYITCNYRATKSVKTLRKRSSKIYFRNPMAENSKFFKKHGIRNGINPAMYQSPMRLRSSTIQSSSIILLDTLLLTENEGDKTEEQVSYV

[1] = target: 5-HT2B receptor (rat stomach fundus) (Rattus norvegicus, UniProt P30994); settings: rat stomach fundus; vs serotonin; ± standard error; read-out: 5-HT2B (Fundus) -log KB (converted)
5-HT2B receptor (rat stomach fundus), sequence (P30994 whole entry): as the sequence (P30994 whole entry) above

distal colon = assay: Functional in vitro assay: antagonism of serotonin contraction of rat distal colon longitudinal muscle; settings: vs serotonin
Text: Functional In vitro Assay:
Sprague-Dawley rats (200-250g; Laboratory Supply, Indianapolis, Ind.) were sacrificed by cervical dislocation and 8 cm segment of distal colon was removed and washed in ice cold modified Kreb's solution of the following composition (millimolar): Nacl, 118.2; Kcl, 4.6; Cacl2. H2 O, 1.6; KH2 PO4, 1.2; MgSO4, 1.2; dextrose, 10.0; and NaHCO3, 24.8. The colon was mounted on a glass rod and the longitudinal muscle layer with attached myenteric plexi was removed and mounted in organ baths, containing above described Kreb's solution maintained at 37° C. and equilibrated with 95% O2 and 5% CO2. Tissues were placed under 2 g tension and allowed to stabilize for 1 hour. Isometric contractions were recorded as changes in grams of force using grass FT03 transducers and MI^2 - computerized dynograph system. Cumulative concentration-response curves for serotonin were obtained by a stepwise increase in concentration after washing out the preceding concentration for 10-15 minutes. Each agonist concentration remained in contact with the tissue for 5 minutes. Maximum response to each concentration was determined and digitized. EC50 values were taken as the concentration of agonist that produced half maximal contraction. After control responses were obtained, tissues were incubated with an appropriate concentration of antagonist for 15 minutes. Response to serotonin were then repeated in the presence of an antagonist. Concentration-response utilized only one concentration of antagonist per tissue. Apparent antagonist dissociation constants (KB) were determined for each concentration of antagonist according to the following equation:
KB =[B]/(dose ratio-1), where [B] is the concentration of the antagonist and dose ratio is the ED50 of the agonist in the presence of antagonist divided by the control ED50. The results were expressed as the negative logarithm of the KB (i.e., -log KB) (Br. J. Pharmacol. Methods 4:4165, (1980).
The functional in vitro method described supra. was used to test compounds of this invention. Values are expressed as pKi and pA2 (-log KB). The following table illustrates the results obtained when the compounds were tested using the Radioligand assay supra. (pKi) and the functional in vitro method described supra. (pA2)

[2] = target: T2, 5-HT2A receptor (rat jugular vein) (Rattus norvegicus, UniProt P14842); assay: Antagonism of serotonin response in rat jugular vein (apparent antagonist dissociation constant); settings: vs serotonin, ± standard error, read-out: 5-HT2A (Jugular) -log KB (converted)
T2 construct: rat jugular vein which is mediated by 5-HT2A receptors; from tissue; host or cells: rat jugular vein
T2 sequence (P14842 whole entry): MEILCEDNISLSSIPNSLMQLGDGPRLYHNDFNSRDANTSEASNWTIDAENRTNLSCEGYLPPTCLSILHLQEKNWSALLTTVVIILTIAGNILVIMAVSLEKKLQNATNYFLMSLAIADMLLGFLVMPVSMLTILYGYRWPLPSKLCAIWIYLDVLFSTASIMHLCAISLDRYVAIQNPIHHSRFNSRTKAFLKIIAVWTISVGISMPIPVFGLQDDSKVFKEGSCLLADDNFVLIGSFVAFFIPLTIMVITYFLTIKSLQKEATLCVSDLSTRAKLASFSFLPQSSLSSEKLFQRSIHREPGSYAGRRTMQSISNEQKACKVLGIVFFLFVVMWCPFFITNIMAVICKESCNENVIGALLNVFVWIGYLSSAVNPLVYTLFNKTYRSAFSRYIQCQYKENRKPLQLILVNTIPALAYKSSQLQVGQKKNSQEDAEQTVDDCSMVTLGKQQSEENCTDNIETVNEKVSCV
Description: Apparent antagonist dissociation constants (KB) were determined for each concentration of antagonist according to the following equation: […]
where [B] is the concentration of the antagonist and dose ratio is the ED50 of the agonist in the presence of the antagonist divided by the control ED50. Generally, parallel shifts in the concentration-response curves occurred in the presence of antagonists. The results were expressed as the negative logarithm of the KB (i.e., -log KB). Calculations were completed using known methods.
The values in Table II are expressed as -log KB ± standard error (number of data points). The 5-HT2B value represents the negative log of the concentration of an antagonist that will produce a two fold dextral shift in the concentration response curve to serotonin in the rat stomach fundus which is mediated by 5-HT2B receptors. Likewise, the 5-HT2A value represents the negative log of the concentration of an antagonist that will produce a two fold dextral shift in the concentration response curve to serotonin in the rat jugular vein which is mediated by 5-HT2A receptors. The blank values in Table II indicate that the compound was not tested in the indicated assay.

5HT2C = target: T3, 5HT2C (Homo sapiens, UniProt P28335); assay: Human cell assay, 5HT2C cells; assay type: binding; settings: Cell assays use Human Cells
T3 construct: expressed in transfected cells
T3 sequence (P28335 33-458): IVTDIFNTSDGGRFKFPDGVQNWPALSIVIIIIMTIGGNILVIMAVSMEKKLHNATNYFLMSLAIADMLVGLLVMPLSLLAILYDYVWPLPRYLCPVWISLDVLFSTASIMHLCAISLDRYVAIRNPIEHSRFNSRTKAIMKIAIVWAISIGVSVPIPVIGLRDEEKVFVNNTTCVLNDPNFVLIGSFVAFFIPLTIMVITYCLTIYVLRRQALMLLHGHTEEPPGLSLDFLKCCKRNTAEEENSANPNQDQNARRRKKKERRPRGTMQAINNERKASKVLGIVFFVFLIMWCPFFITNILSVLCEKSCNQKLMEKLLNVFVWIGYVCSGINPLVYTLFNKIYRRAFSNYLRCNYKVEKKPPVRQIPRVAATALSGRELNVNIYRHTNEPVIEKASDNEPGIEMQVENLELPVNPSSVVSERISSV
Description: Compounds of this invention were tested using substantially the procedure describe in the Radioligand assay supra. and are summarized in Table I infra. The values in Table I are expressed as Ki values calculated as described supra. The blank values in Table I indicate that the compound was not tested in the corresponding assay.

[3] = Ki Rat 5-HT2B, [3H]Serotonin, 5-HT2B cells, AVG
[4] = [125I]DOI, AVG, read-out: Ki Human 5-HT2A
[5] = [3H]Serotonin, 5-HT2B cells, AVG, read-out: Ki Human 5-HT2B
[6] = [3H]Serotonin, 5-HT2B cells, AVG, read-out: Ki Rat 5-HT2B

Rat 5-HT2A, sequence (P14842 whole entry): as the sequence (P14842 whole entry) above

Row | SMILES | Ki (Rat 5-HT2A) | Ki (rat 5-HT2B receptor; [3]) | Ki (Human 5-HT2A; [4]) | Ki (Human 5-HT2A) | also measured
1 | CN1CC(C(=O)NC2CCCCC2)CC2c3cccc4[nH]cc(c34)CC21 (stereo not shown) | 0.00512 µM | 0.019 µM |  |  | 
2 | CC(C)n1cc2c3c(cccc31)C1CC(C(=O)NC3CCCCC3)CN(C)C1C2 (stereo not shown) | 0.00205 µM | 0.0151 µM |  |  | 
3 | Cc1ccc2c(CCN)c[nH]c2c1Br | 0.0142 µM | 0.0113 µM | 0.0337 µM |  | 
4 | Cc1ccc2c(CCN)c[nH]c2c1Cl | 0.0207 µM | 0.00794 µM | 0.0276 µM |  | Ki (Human 5-HT2B): 0.0112 µM
5 | Cc1ccc2c3c([nH]c2c1Br)CNCC3 | 0.0157 µM |  |  | 0.0217 µM | 
6 | Brc1cccc2c3c([nH]c12)CNCC3 | 0.0256 µM |  |  | 0.0227 µM | 
7 | Cc1ccc2c3c([nH]c2c1I)CNCC3 |  |  |  | 0.0178 µM | Ki (Human 5-HT2B; [5]): 0.0102 µM; Ki (rat 5-HT2B receptor; [6]): 0.0153 µM
8 | CN1CC(C(=O)N[C@H]2CC[C@H](O)CC2)CC2c3cccc4[nH]cc(c34)CC21 (stereo partly shown) | 0.00536 µM | 0.0446 µM | 0.00125 µM |  | Ki (Human 5-HT2B): 0.0124 µM
9 | CC(C)n1cc2c3c(cccc31)C1CC(C(=O)N[C@H]3CC[C@@H](O)CC3)CN(C)C1C2 (stereo partly shown) | 0.00157 µM | 0.0223 µM | 0.0113 µM |  | Ki (Human 5-HT2B): 0.0043 µM
10 | CC(C)n1cc2c3c(cccc31)C1CC(C(=O)N[C@H]3CC[C@H](O)CC3)CN(C)C1C2 (stereo partly shown) | 0.00282 µM | 0.0309 µM | 0.0212 µM |  | Ki (Human 5-HT2B): 0.00624 µM
11 | COc1ccc(C(C)C2NCCc3c2[nH]c2cc(C)c(C)cc32)cc1OC (racemic) [Example 41, (±) 6,7-dimethyl-1-[(3,4-dimethoxyphenyl)-1-ethyl]-1,2,3,4-tetrahydro-9H-pyrido[3,4-b]indole (Z)-2-butenedioate] |  |  |  |  | Kb [1]: 0.000155 µM; pA2 (-log KB) (distal colon): 7.2; Ki (rat 5-HT2B receptor; Radioligand assay, Table III, read-out: pKi (converted)): 0.00646 µM; Kb [2]: 0.0115 µM
12 | Cc1ccc2[nH]c3c(c2c1)CCNC3Cc1cccc2ccccc12 (racemic) [Example 51, (±) 6-methyl-1-(1-naphthalenylmethyl)-1,2,3,4-tetrahydro-9H-pyrido [3,4-b]indole hydrochloride] |  |  |  |  | Kb [1]: 0.000178 µM; Kb [2]: 0.00851 µM
13 | Cc1ccc2[nH]c3c(c2c1)[C@@H]1CCCC[C@H]1NC3 (relative stereo) [Example 95, Trans-10-methyl-2,3,4,4a,5,6,7,11c-octahydro-1H-indolo[2,3c]quinoline, hydrochloride] |  |  |  | 3.44 µM | Ki (Human 5-HT2B; Cell assays use Human Cells, read-out: Ki, 5HT2B Cells): 0.84 µM; Ki (5HT2C): 2.64 µM
14 | CCCN(CCC)C1CCc2cccc(-c3ccno3)c2C1 (single isomer, unassigned) |  |  |  |  | Ki (Human 5-HT2A; read-out: Ki Human 5-HT2A, [125I]DOI, AVG): 6.16 µM; Ki (Human 5-HT2B; [5]): 0.215 µM; Ki (rat 5-HT2B receptor; read-out: Ki Rat 5-HT2B, [3H]Serotonin, 5-HT2B cells, AVG): 0.0793 µM
15 | COc1ccc(C(C)C2NCCc3c2[nH]c2ccc(C)cc32)cc1OC (single isomer, unassigned) |  |  |  | 0.373 µM | Ki (Human 5-HT2B; [5]): 0.00555 µM; Ki (rat 5-HT2B receptor; [6]): 0.0301 µM
16 | Brc1ccc2[nH]c3c(c2c1)CCNC3 [6-bromo-1,2,3,4-tetrahydro-9H-pyrido[3,4b]-indole] |  |  |  |  | pA2 (-log KB) (distal colon): 8.2
